From PubChem BioAssay (NCI)
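Protocol summary: plate cells (96-well), add compound at 5 concentrations, incubate 48 h, interpolate endpoints linearly. TGI is the concentration that stops growth completely.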

How the values were obtained:
Experiment in all cases: growth of human tumour cells (NCI), 48 h
OVCAR-3 ovarian = test system: OVCAR-3 ovarian
OVCAR-5 ovarian = test system: OVCAR-5 ovarian
786-0 renal = test system: 786-0 renal
SR leukemia = test system: SR leukemia
IGROV1 ovarian = test system: IGROV1 ovarian
SNB-75 CNS = test system: SNB-75 CNS
MALME-3M melanoma = test system: MALME-3M melanoma
HCT-116 colon = test system: HCT-116 colon
M14 melanoma = test system: M14 melanoma
K-562 leukemia = test system: K-562 leukemia
UACC-62 melanoma = test system: UACC-62 melanoma
A549 NSCLC = test system: A549 NSCLC
CCRF-CEM leukemia = test system: CCRF-CEM leukemia
SNB-19 CNS = test system: SNB-19 CNS
MDA-MB-435 = test system: MDA-MB-435
TK-10 renal = test system: TK-10 renal
HCT-15 colon = test system: HCT-15 colon
MOLT-4 leukemia = test system: MOLT-4 leukemia
DU-145 prostate = test system: DU-145 prostate
NCI-H522 lung = test system: NCI-H522 lung
OVCAR-4 ovarian = test system: OVCAR-4 ovarian
MDA-N = test system: MDA-N
MDA-MB-231 breast = test system: MDA-MB-231 breast
SK-MEL-2 melanoma = test system: SK-MEL-2 melanoma
PC-3 prostate = test system: PC-3 prostate
LOX IMVI melanoma = test system: LOX IMVI melanoma
A498 renal = test system: A498 renal
SW-620 colon = test system: SW-620 colon
U251 CNS = test system: U251 CNS
BT-549 breast = test system: BT-549 breast
NCI-H226 lung = test system: NCI-H226 lung
MCF7 breast = test system: MCF7 breast
SF-268 CNS = test system: SF-268 CNS
HOP-62 NSCLC = test system: HOP-62 NSCLC
SN12C renal = test system: SN12C renal
HL-60(TB) leukemia = test system: HL-60(TB) leukemia
HCC-2998 colon = test system: HCC-2998 colon
RPMI-8226 leukemia = test system: RPMI-8226 leukemia
SK-MEL-28 melanoma = test system: SK-MEL-28 melanoma
OVCAR-8 ovarian = test system: OVCAR-8 ovarian
UO-31 renal = test system: UO-31 renal
HT29 colon = test system: HT29 colon
CAKI-1 renal = test system: CAKI-1 renal
NCI-H460 lung = test system: NCI-H460 lung
ACHN renal = test system: ACHN renal
UACC-257 melanoma = test system: UACC-257 melanoma
T-47D breast = test system: T-47D breast
NCI-H23 lung = test system: NCI-H23 lung
SK-MEL-5 melanoma = test system: SK-MEL-5 melanoma
NCI/ADR-RES ovarian = test system: NCI/ADR-RES ovarian
COLO 205 colon = test system: COLO 205 colon
RXF 393 renal = test system: RXF 393 renal
HS 578T breast = test system: HS 578T breast
SK-OV-3 ovarian = test system: SK-OV-3 ovarian
KM12 colon = test system: KM12 colon
EKVX NSCLC = test system: EKVX NSCLC
SF-539 CNS = test system: SF-539 CNS

With `CCc1ccccc1N=NC(=O)NNc1ccccc1CC` the TGI (OVCAR-3 ovarian) was 33.2 µM, the TGI (OVCAR-5 ovarian) was 29.4 µM and the TGI (786-0 renal) was 31.6 µM. It also gave a TGI (SR leukemia) of 57.1 µM, a TGI (IGROV1 ovarian) of 26 µM and a TGI (SNB-75 CNS) of 45.7 µM. It also gave a TGI (MALME-3M melanoma) of 32.7 µM, a TGI (HCT-116 colon) of 29 µM and a TGI (M14 melanoma) of 34.7 µM. The TGI (K-562 leukemia) was 68.5 µM, the TGI (UACC-62 melanoma) was 23 µM and the TGI (A549 NSCLC) was 31.9 µM. It also gave a TGI (CCRF-CEM leukemia) of 65.6 µM, a TGI (SNB-19 CNS) of 95 µM and a TGI (MDA-MB-435) of 49 µM. It also gave a TGI (TK-10 renal) of 50.1 µM, a TGI (HCT-15 colon) of 38.1 µM and a TGI (MOLT-4 leukemia) of 50.1 µM. The TGI (DU-145 prostate) was 33.6 µM, the TGI (NCI-H522 lung) was 41.3 µM and the TGI (OVCAR-4 ovarian) was 69.8 µM. For the same compound, the TGI (MDA-N) was 33.2 µM, the TGI (MDA-MB-231 breast) was 50.1 µM and the TGI (SK-MEL-2 melanoma) was 31.7 µM. For the same compound, the TGI (PC-3 prostate) was 37.5 µM, the TGI (LOX IMVI melanoma) was 33.7 µM and the TGI (A498 renal) was 36.5 µM. The TGI (SW-620 colon) was 37.5 µM, the TGI (U251 CNS) was 29.6 µM and the TGI (BT-549 breast) was 34.3 µM. For the same compound, the TGI (NCI-H226 lung) was 34.4 µM, the TGI (MCF7 breast) was 36.3 µM and the TGI (SF-268 CNS) was 35.4 µM. The TGI (HOP-62 NSCLC) was 29.4 µM, the TGI (SN12C renal) was 35.7 µM and the TGI (HL-60(TB) leukemia) was 56.9 µM. The TGI (HCC-2998 colon) was 29.9 µM, the TGI (RPMI-8226 leukemia) was 77.3 µM and the TGI (SK-MEL-28 melanoma) was 32.2 µM. The TGI (OVCAR-8 ovarian) was 32.8 µM, the TGI (UO-31 renal) was 39.8 µM and the TGI (HT29 colon) was 40.8 µM. For the same compound, the TGI (CAKI-1 renal) was 95.2 µM, the TGI (NCI-H460 lung) was 34.5 µM and the TGI (ACHN renal) was 54.6 µM. For the same compound, the TGI (UACC-257 melanoma) was 36.1 µM, the TGI (T-47D breast) was 32.2 µM and the TGI (NCI-H23 lung) was 39.8 µM. The TGI (SK-MEL-5 melanoma) was 28.6 µM.

Compound `COC(=O)C(NC(=O)C(CC(=O)OC(C)(C)C)NC(=O)OC(C)(C)C)C(O)c1ccccc1` (stereo not drawn) has a TGI (OVCAR-3 ovarian) of over 100 µM, a TGI (OVCAR-5 ovarian) of over 100 µM and a TGI (786-0 renal) of over 100 µM. The TGI (IGROV1 ovarian) was over 100 µM, the TGI (SNB-75 CNS) was over 100 µM and the TGI (MALME-3M melanoma) was over 100 µM. The TGI (NCI/ADR-RES ovarian) was over 100 µM, the TGI (HCT-116 colon) was over 100 µM and the TGI (M14 melanoma) was over 100 µM. It also gave a TGI (K-562 leukemia) of over 100 µM, a TGI (COLO 205 colon) of over 100 µM and a TGI (UACC-62 melanoma) of 70.8 µM. The TGI (A549 NSCLC) was over 100 µM, the TGI (CCRF-CEM leukemia) was over 100 µM and the TGI (SNB-19 CNS) was over 100 µM. The TGI (MDA-MB-435) was over 100 µM, the TGI (TK-10 renal) was over 100 µM and the TGI (HCT-15 colon) was over 100 µM. The TGI (MOLT-4 leukemia) was over 100 µM, the TGI (RXF 393 renal) was over 100 µM and the TGI (DU-145 prostate) was over 100 µM. It also gave a TGI (NCI-H522 lung) of over 100 µM, a TGI (OVCAR-4 ovarian) of over 100 µM and a TGI (MDA-N) of over 100 µM. It also gave a TGI (MDA-MB-231 breast) of over 100 µM, a TGI (SK-MEL-2 melanoma) of over 100 µM and a TGI (PC-3 prostate) of over 100 µM. It also gave a TGI (LOX IMVI melanoma) of over 100 µM, a TGI (HS 578T breast) of over 100 µM and a TGI (A498 renal) of over 100 µM. For the same compound, the TGI (SW-620 colon) was over 100 µM, the TGI (U251 CNS) was over 100 µM and the TGI (BT-549 breast) was over 100 µM. The TGI (NCI-H226 lung) was over 100 µM, the TGI (MCF7 breast) was over 100 µM and the TGI (SF-268 CNS) was over 100 µM. The TGI (HOP-62 NSCLC) was over 100 µM, the TGI (SN12C renal) was over 100 µM and the TGI (RPMI-8226 leukemia) was over 100 µM. It also gave a TGI (SK-MEL-28 melanoma) of over 100 µM, a TGI (OVCAR-8 ovarian) of over 100 µM and a TGI (UO-31 renal) of over 100 µM. For the same compound, the TGI (SK-OV-3 ovarian) was 61.9 µM, the TGI (KM12 colon) was over 100 µM and the TGI (HT29 colon) was over 100 µM. The TGI (EKVX NSCLC) was over 100 µM, the TGI (CAKI-1 renal) was over 100 µM and the TGI (SF-539 CNS) was over 100 µM. The TGI (NCI-H460 lung) was over 100 µM, the TGI (ACHN renal) was over 100 µM and the TGI (UACC-257 melanoma) was over 100 µM. For the same compound, the TGI (T-47D breast) was over 100 µM, the TGI (NCI-H23 lung) was over 100 µM and the TGI (SK-MEL-5 melanoma) was over 100 µM.
